Drawing on patent publication US11230556B2 (Merck Sharp & Dohme Corp., priority 2016, dated 2022), this text covers EC50 for 26 compounds.

pEC50: −log10 of the molar value.

The assay concerns the target T1, human M4 muscarinic acetylcholine receptor (Homo sapiens, UniProt P08173).
T1 construct: expressed in transfected cells; host or cells: CHO-K1
T1 sequence (P08173 1-479): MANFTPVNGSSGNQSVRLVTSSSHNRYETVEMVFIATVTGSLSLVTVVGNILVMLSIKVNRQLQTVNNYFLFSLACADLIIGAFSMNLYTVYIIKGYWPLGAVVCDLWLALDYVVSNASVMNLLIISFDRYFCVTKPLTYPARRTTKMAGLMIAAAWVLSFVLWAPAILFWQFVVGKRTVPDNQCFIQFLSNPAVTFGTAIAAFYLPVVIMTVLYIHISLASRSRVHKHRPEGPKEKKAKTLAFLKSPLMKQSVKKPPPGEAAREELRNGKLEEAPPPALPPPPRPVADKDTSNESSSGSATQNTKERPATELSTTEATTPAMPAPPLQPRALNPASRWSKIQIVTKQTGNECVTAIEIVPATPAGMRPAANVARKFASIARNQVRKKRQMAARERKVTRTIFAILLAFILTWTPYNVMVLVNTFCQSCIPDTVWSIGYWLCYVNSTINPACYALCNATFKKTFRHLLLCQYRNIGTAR
In words: human FLIPR-based M4 PAM assay (CHO-K1 cells with human M4 receptor and Gαqi5, calcium dye fluorescence, acetylcholine at 20% of maximum response). Format: cell-based. Conditions: inflection point (IP) of 4 parameter logistic dose response curve, human M4 receptor + Gαqi5, FLIPR Tetra. How it is done:
In a typical experiment the M4 muscarinic acetylcholine receptor modulating activity of the compounds of the present invention was determined in accordance with the following experimental method. CHO-K1 cells stably transfected with human M4 receptor and chimeric G-protein Gαqi5 (Coward P, et al., Analytical Biochemistry, 270:242-248 (1999)) are thawed from liquid N2 storage, resuspended in growth medium, plated in black, clear bottom 384 well plates, and incubated 16-20 hours at 37° C., 5% CO2. On the day of assay, growth medium is removed, the cells are washed 2 times with wash buffer, and cells are incubated in dye loading buffer at 37° C., 5% CO2 for ˜1 hour. Following dye loading the cell plates are placed in a FLIPR Tetra instrument and while monitoring dye fluorescence (excitation […]), 10 uL of test substance at increasing concentrations is added, and fluorescence values are recorded for 4 min. Next, 10 uL of acetylcholine is added (final concentration calculated so as to achieve 20% of the maximum acetycholine response), and the fluorescence reading is continued for 3.5 min. In some cases, a third addition of acetylcholine (final concentration calculated to achieve 70% of the maximal acetylcholine response) is performed. The resulting dose response curves are fit to a 4 parameter logistic equation and the final result is determined as the inflection point (IP) of the curve
CHO-K1 cells stably transfected with human M4 receptor and chimeric G-protein Gαqi5 are thawed from liquid N2 storage, resuspended in growth medium, plated in black, clear bottom 384 well plates, and incubated 16-20 hours at 37° C., 5% CO2.
On the day of assay, growth medium is removed, the cells are washed 2 times with wash buffer, and cells are incubated in dye loading buffer at 37° C., 5% CO2 for ˜1 h. Following dye loading the cell plates are placed in a FLIPR Tetra instrument and while monitoring dye fluorescence ([…]), 10 uL of test substance at increasing concentrations is added, and fluorescence values are recorded for 4 min. Next, 10 uL of acetylcholine is added (final concentration calculated so as to achieve 20% of the maximum acetycholine response), and the fluorescence reading is continued for 3.5 min. In some cases, a third addition of acetylcholine (final concentration calculated to achieve 70% of the maximal acetylcholine response) is performed.
Turning to `Cc1cc2c(=O)[nH][nH]c2nc1N1CCC(Oc2ccc3cn[nH]c3c2)CC1` [Example 24, 6-(4-((1H-indazol-6-yl)oxy)piperidin-1-yl)-5-methyl-1,2-dihydro-3H-pyrazolo[3,4-b]pyridin-3-one], the negative-log EC50 (pEC50) is 7.41. Under `COc1ccc(OC2CCN(c3nc4c(cc3C)CN(C(=O)C3COC3)C4)CC2)cn1` [Example 55, (2-(4-((6-methoxypyridin-3-yl)oxy)piperidin-1-yl)-3-methyl-5,7-dihydro-6H-pyrrolo[3,4-b]pyridin-6-yl)(oxetan-3-yl)methanone] stands 6.67. For the compound `COc1ccc(OC2CCN(c3nc4[nH][nH]c(=O)c4cc3C)CC2)cn1` [Example 23, 6-(4-((6-methoxypyridin-3-yl)oxy)piperidin-1-yl)-5-methyl-1,2-dihydro-3H-pyrazolo[3,4-b]pyridin-3-one], the pEC50 was 7.17. As for `Cc1cn2c(=O)[nH]nc2nc1N1CCC(OCC2CCCC2)CC1` [Example 8, 7-(4-(cyclopentylmethoxy)piperidin-1-yl)-6-methyl-[1,2,4]triazolo[4,3-a]pyrimidin-3(2H)-one], the figure is 6.62; as for `COCCC(=O)N1Cc2cc(C)c(N3CCC(Oc4ccc(OC)nc4)CC3)nc2C1` [Example 56, 3-methoxy-1-(2-(4-((6-methoxypyridin-3-yl)oxy)piperidin-1-yl)-3-methyl-5,7-dihydro-6H-pyrrolo[3,4-b]pyridin-6-yl)propan-1-one], 6.66; as for `Cc1cc2c(=O)[nH]n(C)c2nc1N1CCC(Oc2cccc(C#N)c2)CC1` [Example 26, 3-((1-(1,5-dimethyl-3-oxo-2,3-dihydro-1H-pyrazolo[3,4-b]pyridin-6-yl)piperidin-4-yl)oxy)benzonitrile], 6.68.

For the compound `COc1ccc(OC2CCN(c3nc4cnn(C)c4cc3C)CC2)cn1` [Example 66, 5-(4-((6-methoxypyridin-3-yl)oxy)piperidin-1-yl)-1,6-dimethyl-1H-pyrazolo[4,3-b]pyridine], the pEC50 was 5.86. As for `CCOC(=O)N1Cc2cc(C)c(N3CCC(Oc4ccc(OC)nc4)CC3)nc2C1` [Example 43, ethyl 2-(4-((6-methoxypyridin-3-yl)oxy)piperidin-1-yl)-3-methyl-5,7-dihydro-6H-pyrrolo[3,4-b]pyridine-6-carboxylate], the figure is 6.80. For the compound `COc1ccc(OC2CCN(c3nc4c(cc3C)CN(C(=O)C3CC3)C4)CC2)cn1` [Example 41, cyclopropyl(2-(4-((6-methoxypyridin-3-yl)oxy)piperidin-1-yl)-3-methyl-5,7-dihydro-6H-pyrrolo[3,4-b]pyridin-6-yl)methanone], the pEC50 was 6.82. Under `Cc1cn2c(=O)n(C)nc2nc1N1CCC(OCC2CCCC2)CC1` [Example 12, 7-(4-(cyclopentylmethoxy)piperidin-1-yl)-2,6-dimethyl-[1,2,4]triazolo[4,3-a]pyrimidin-3(2H)-one] stands 6.14; under `COc1ccc(OC2CCN(c3nc4[nH]ncc4cc3C)CC2)cn1` [Example 63, 6-(4-((6-Methoxypyridin-3-yl)oxy)piperidin-1-yl)-5-methyl-1H-pyrazolo[3,4-b]pyridine], 6.43. Under `COc1ccc(OC2CCN(c3nc4c(cc3C)CN(C(=O)CCN(C)C)C4)CC2)cn1` [Example 53, 3-(dimethylamino)-1-(2-(4-((6-methoxypyridin-3-yl)oxy)piperidin-1-yl)-3-methyl-5,7-dihydro-6H-pyrrolo[3,4-b]pyridin-6-yl)propan-1-one] stands 6.30. Take `COc1ccc(OC2CCN(c3nc4c(cc3C)C(=O)CC4)CC2)cn1` [Example 69, 2-(4-((6-Methoxypyridin-3-yl)oxy)piperidin-1-yl)-3-methyl-6,7-dihydro-5H-cyclopenta[b]pyridin-5-one]: the pEC50 was 7.38. On to `COc1ccc(OC2CCN(c3nc4c(cc3C)C(=O)C(F)(F)C4)CC2)cn1` [Example 70, 6,6-difluoro-2-(4-((6-methoxypyridin-3-yl)oxy)piperidin-1-yl)-3-methyl-6,7-dihydro-5H-cyclopenta[b]pyridin-5-one], for which the pEC50 is 7.20. Under “(R)-2-(4-((1,3-dihydroisobenzofuran-5-yl)oxy)piperidin-1-yl)-3-methyl-8,9,10,10a-tetrahydropyrido[2′,3′:3,4]pyrrolo[1,2-a]pyrazin-5(7H)-one and (S)-2-(4-((1,3-dihydroisobenzofuran-5-yl)oxy)piperidin-1-yl)-3-methyl-8,9,10,10a-tetrahydropyrido[2′,3′:3,4]pyrrolo[1,2-a]pyrazin-5(7H)-one [Example 83B]” stands 7.60; under `COc1ccc(OC2CCN(c3nc4c(cc3C)CN(C(=O)C3(C)COC3)C4)CC2)cn1` [Example 42, (2-(4-((6-methoxypyridin-3-yl)oxy)piperidin-1-yl)-3-methyl-5,7-dihydro-6H-pyrrolo[3,4-b]pyridin-6-yl)(3-methyloxetan-3-yl)methanone], 6.70; under `Cc1cc2c(nc1N1CCC(Oc3ccccc3)CC1)COC2=O` [Example 31, 3-methyl-2-(4-phenoxypiperidin-1-yl)furo[3,4-b]pyridin-5(7H)-one], 7.77. Under `Cc1cn2c(=O)[nH]nc2nc1N1CCC(Oc2ccc3c(cnn3C)c2)CC1` [Example 18] stands 6.47. As for `COc1ccc(OC2CCN(c3nc4c(cc3C)C(=O)OC4(C)C)CC2)cn1` [Example 30, 2-(4-((6-methoxypyridin-3-yl)oxy)piperidin-1-yl)-3,7,7-trimethylfuro[3,4-b]pyridin-5(7H)-one], the figure is 6.07. As to `COc1ccc(OC2CCN(c3nc4c(cc3C)CN(Cc3ccncc3)C4=O)CC2)cn1` [Example 36, 2-(4-((6-Methoxypyridin-3-yl)oxy)piperidin-1-yl)-3-methyl-6-(pyridin-4-ylmethyl)-5,6-dihydro-7H-pyrrolo[3,4-b]pyridin-7-one], the pEC50 was 6.17. As for `COc1ccc(OC2CCN(c3nc4c(cc3C)CN(C(=O)CCO)C4)CC2)cn1` [Example 39, 3-Hydroxy-1-(2-(4-((6-methoxypyridin-3-yl)oxy)piperidin-1-yl)-3-methyl-5,7-dihydro-6H-pyrrolo[3,4-b]pyridin-6-yl)propan-1-one], the figure is 7.11; as for `COc1ccc(OC2CCN(c3nc4c(cc3C)CN(C(=O)c3ccc[nH]3)C4)CC2)cn1` [Example 50, (2-(4-((6-methoxypyridin-3-yl)oxy)piperidin-1-yl)-3-methyl-5,7-dihydro-6H-pyrrolo[3,4-b]pyridin-6-yl)(1H-pyrrol-2-yl)methanone], 6.32. Under `Cc1cn2c(=O)n(C)nc2nc1N1CC[C@@H](Oc2ccc3c(cnn3C)c2)[C@@H](F)C1` [Example 10, 7-((3S,4R)-3-fluoro-4-((1-methyl-1H-indazol-5-yl)oxy)piperidin-1-yl)-2,6-dimethyl-[1,2,4]triazolo[4,3-a]pyrimidin-3(2H)-one] stands 7.09.

On to `COc1ccc(OC2CCN(c3nc4cn(C)nc4cc3C)CC2)cn1` [Example 64, 5-(4-((6-Methoxypyridin-3-yl)ox)piperidin-1-yl)-2,6-dimethyl-2H-pyrazolo[4,3-b]pyridine], for which the pEC50 was 6.62.

With `COc1ccc(OC2CCN(c3nc4c(cc3C)CN(C(=O)C3CC(F)(F)C3)C4)CC2)cn1` [Example 49, (3,3-difluorocyclobutyl)(2-(4-((6-methoxypyridin-3-yl)oxy)piperidin-1-yl)-3-methyl-5,7-dihydro-6H-pyrrolo[3,4-b]pyridin-6-yl)methanone], the pEC50 is 6.90. As for `COC(=O)N1Cc2cc(C)c(N3CCC(Oc4ccccc4)CC3)nc2C1` [Example 62, methyl 3-methyl-2-(4-phenoxypiperidin-1-yl)-5,7-dihydro-6H-pyrrolo[3,4-b]pyridine-6-carboxylate], the figure is 6.94.
